# Where “and” joins values, the source holds several entries; their conditions need not be identical. Identical values can stand only once.
# Target: SARS-CoV-2 Main Protease (SARS-CoV-2) (UniProt P0DTD1)
row,SMILES,IC50
1,C=CC(=O)N(c1ccc(C(C)(C)C)cc1)C(C(=O)NCc1ccccc1)c1cccnc1 (centres undefined),33300 nM
2,Cc1cccn2ncc(NC(=O)C3CNC(=O)c4ccc(Cl)cc43)c12 (centres undefined),2400 nM
3,O=C(NCCNc1ccccc1)c1cc(=O)[nH]c2ccccc12,> 99500 nM
4,Cn1nncc1C(=O)N1Cc2ccc(Cl)cc2C(C(=O)Nc2cncc3ccccc23)C1 (centres undefined),397 nM
5,COc1ccccc1OCCNC(=O)c1cc(=O)[nH]c2cc(F)ccc12,> 99500 nM
6,O=C(Cc1cc(Cl)cc(NCCCN2CCS(=O)(=O)CC2)c1)Nc1cncc2ccccc12,1920 nM
7,Cc1cn(-c2cc(Nc3cc(Cl)cc(CC(=O)Nc4cncc5ccccc45)c3)cc(C(F)(F)F)c2)cn1,2530 nM
8,C=CC(=O)N(c1ccc(C(C)(C)C)cc1)C(C(=O)NCCc1cccc(F)c1)c1cccnc1 (centres undefined),2960 nM
9,CC1(C)Cc2cccc(OCCNC(=O)c3cc(=O)[nH]c4cc(F)ccc34)c2O1,> 99500 nM
10,C[C@H](C/C=C/C(C)(C)O)[C@H]1CC[C@@]2(C)[C@@H]3C=C[C@]45OC(O)[C@@]3(CC[C@]12C)[C@@H]4CC[C@H](O[C@@H]1O[C@H](CO)[C@@H](O)[C@H](O)[C@H]1O)C5(C)C (stereo in doubt),> 99500 nM
11,CC(C)CS(=O)(=O)N1Cc2ccc(Cl)cc2C(C(=O)Nc2cncc3ccc(C(C)(C)O)cc23)C1 (centres undefined),1220 nM
12,COc1cc2nc(Cl)nc(Nc3cc(Cl)cc(CC(=O)Nc4cncc5ccccc45)c3)c2cc1OC,2360 nM
13,Cc1cc(Nc2cc(Cl)cc(CC(=O)Nc3cncc4ccccc34)c2)cc(C)c1Br,2140 nM
14,O=C1CCC(c2ccc(N(C(=O)c3cocn3)C(C(=O)NCCc3cccc(F)c3)c3cccnc3)cc2)N1 (centres undefined),> 99500 nM
15,Cc1ccncc1NC(=O)Cc1cc(Cl)cc(/C=C(/c2ccccc2)C(F)(F)F)c1,22800 nM
16,Cc1ccc(C)c(S(=O)(=O)N2CCN(C(=O)CCl)CC2)c1,14200 nM
17,O=C(Cc1cc(Cl)cc(Nc2cc(C(F)(F)F)ccc2Cl)c1)Nc1cncc2ccccc12,1610 nM
18,O=C(Nc1cccc(C(F)(F)F)c1)Nc1ccccc1Sc1ncc([N+](=O)[O-])s1,6260 nM
19,O=C(Cc1cc(Cl)cc(Nc2ncnc(Cl)c2Cl)c1)Nc1cncc2ccccc12,2060 nM
20,C=CC(=O)N(c1ccc(C(C)(C)C)cc1)[C@H](C(=O)NCCc1cccc(F)c1)c1cccnc1 (stereo in doubt),2860 nM
21,O=C(Cc1cc(Cl)cc(Nc2c(F)c(F)cc(F)c2F)c1)Nc1cncc2ccccc12,2030 nM
22,CC(C)(C)c1ccc(N(C(=O)c2cnsn2)C(C(=O)NCCc2cccc(F)c2)c2cccnc2)cc1 (centres undefined),13200 nM
23,C[C@@]1(C(=O)Nc2cncc3ccccc23)CCNc2cc(Cl)c(Cl)cc21 (stereo in doubt),234 nM and 979 nM
24,O=C(NNc1cc(O)nc2ncccc12)c1ccc2[nH]ccc2c1,> 99500 nM
25,O=S(=O)(Nc1ccccc1SCc1cccc(Cl)c1F)c1cc(Cl)sc1Cl,2230 nM

row,SMILES,IC50
1,O=C(Cc1cccc(Cl)c1)Nc1noc2ncccc12,> 99500 nM
2,Cn1ncc2c(=O)[nH]c(NNC(=O)c3cccn4nccc34)nc21,> 99500 nM
3,COc1ccccc1N(C(=O)c1ccco1)C(C(=O)NCCc1cccc(F)c1)c1cccnc1 (centres undefined),> 99500 nM
4,Cc1ccc(S(=O)(=O)N2CCN(C(=O)CCl)CC2)cc1,21000 nM
5,Cc1ccncc1NC(=O)N(C)c1cccc(Cl)c1,> 99500 nM
6,CC(C)(C)c1ccc(N(C(=O)c2nnc(S)[nH]c2=O)C(C(=O)NCCc2cccc(F)c2)c2cccnc2)cc1 (centres undefined),> 99500 nM
7,Cc1sc2ncnc(N3CCc4c(ncn4C4CC4)C3)c2c1C,> 99500 nM
8,O=C(Cc1cc(Cl)cc(N2CCN(c3ccccc3O)CC2)c1)Nc1cncc2ccccc12,1850 nM
9,CC(C)(C)c1ccc(N(C(=O)c2ccco2)C(C(=O)NCc2ccccc2)c2cccnc2)cc1 (centres undefined),4360 nM
10,Cc1ccncc1NC(=O)C(C)c1cccc(Cl)c1 (centres undefined),27200 nM and 25200 nM
11,Cc1ccc([N+](=O)[O-])c(Nc2cc(Cl)cc(CC(=O)Nc3cncc4ccccc34)c2)c1,2260 nM
12,CC(C)(C)c1ccc(N(C(=O)c2nccs2)C(C(=O)NCCc2cccc(F)c2)c2cccnc2)cc1 (centres undefined),800 nM
13,Cc1nc(Nc2cc(Cl)cc(CC(=O)Nc3cncc4ccccc34)c2)ccc1Br,2070 nM
14,CS(=O)(=O)NCC1(C(=O)Nc2cncc3ccccc23)CCOc2ccc(Cl)cc21 (centres undefined),3870 nM
15,Cc1c(C(=O)N2CCC(C3CCNC3)CC2)cccc1-c1ccccn1 (centres undefined),> 99500 nM
16,CNC(=O)CN1C[C@@H](C(=O)Nc2cncc3cc(Cl)ccc23)c2cc(Cl)ccc2C1=O (stereo in doubt),939 nM
17,O=C(Cc1cccc(Cl)c1)NC1CS(=O)(=O)Cc2ccccc21 (centres undefined),> 99500 nM
18,O=C(Cc1cc(Cl)cc(Nc2ccc(I)c(F)c2)c1)Nc1cncc2ccccc12,2040 nM
19,Cc1cc(N)ncc1NC(=O)Cc1cccc(Cl)c1,> 99500 nM
20,Cn1ncc(C(=O)N(c2ccc(C(C)(C)C)cc2)C(C(=O)NCCc2cccc(F)c2)c2cccnc2)n1 (centres undefined),17600 nM
21,C1=C(c2c[nH]c3ccccc23)CCN(Cc2ccno2)C1,> 99500 nM
22,CC1(C(=O)Nc2cncc3cccc(Cl)c23)CNS(=O)(=O)c2ccc(Cl)cc21 (centres undefined),1870 nM
23,CNC(=O)CN1C[C@H](C(=O)Nc2cncc3cccc(Cl)c23)c2cc(Cl)ccc2C1=O (stereo in doubt),96.4 nM
24,CNC(=O)c1cc(Cl)cc(CC(=O)Nc2cnccc2C)c1,46300 nM and 57300 nM
